For 18 molecules, Ki results are on record in patent US20060100431A1, “Biologically active compounds” (Amura Therapeutics Limited, priority 2002, published 2006).

Some results are limits rather than exact numbers.

Sequence of Wild-type cruzipain (P25779 whole entry): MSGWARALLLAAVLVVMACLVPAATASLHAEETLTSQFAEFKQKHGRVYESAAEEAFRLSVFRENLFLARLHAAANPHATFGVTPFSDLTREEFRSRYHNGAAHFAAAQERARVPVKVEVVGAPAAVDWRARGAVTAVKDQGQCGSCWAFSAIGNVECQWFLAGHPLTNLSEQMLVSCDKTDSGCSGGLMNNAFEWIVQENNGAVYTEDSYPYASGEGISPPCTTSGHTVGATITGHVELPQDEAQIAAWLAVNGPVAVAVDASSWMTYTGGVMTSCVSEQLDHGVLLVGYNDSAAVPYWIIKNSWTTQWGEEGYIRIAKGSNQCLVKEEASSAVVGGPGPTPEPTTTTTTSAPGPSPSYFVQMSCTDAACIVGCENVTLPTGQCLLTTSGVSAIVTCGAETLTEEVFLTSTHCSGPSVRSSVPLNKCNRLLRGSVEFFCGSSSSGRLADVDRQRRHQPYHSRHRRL

One experiment has as its target Wild-type cruzipain (Trypanosoma cruzi, UniProt P25779). As to the kind of experiment: Trypanosoma cruzi cruzipain peptidase activity assay (Ki). The experiment is classed as biochemical. The conditions noted are these: read-out: Ki, inhibitors of cruzain and cruzipains. The gist of the method: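 Native cruzipain from T. cruzi Dm28 epimastigotes, 2.5 nM, in 100 mM sodium phosphate pH 6.75 with 1 mM EDTA and 10 mM L-cysteine, 25 °C, DMSO <1%. Rates taken from continuous fluorogenic substrate read; Ki by regression assuming reversible pure-competitive inhibition.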
For `CC(C)C[C@H](NC(=O)c1ccc(N(C)C)cc1)C(=O)N1CC[C@@H]2[C@H]1C(=O)CN2C(=O)[C@@H](N)C1CCCCC1` [Example 226, (3aR,6aS)-N-{(1S)-1-[4-((2S)-2-Amino-2-cyclohexyl-acetyl)-6-oxo-hexahydro-pyrrolo[3,2-b]pyrrole-1-carbonyl]-3-methyl-butyl}-4-dimethylamino-benzamide], the Ki was less than 5 µM. For the molecule `CC(C)C[C@H](NC(=O)c1ccc(C(C)(C)C)cc1)C(=O)N1CC[C@@H]2[C@H]1C(=O)CN2C(=O)c1ccccc1Cc1ccccc1` [Example 36, (3aR,6aS)-N-{(1S)-1-[4-(2-Benzyl-benzoyl)-6-oxo-hexahydro-pyrrolo[3,2-b]pyrrole-1-carbonyl]-3-methyl-butyl}-4-tert-butyl-benzamide], the Ki is less than 5 µM.

In the case of `O=C(N[C@@H](Cc1ccc(O)cc1)C(=O)N1CC[C@@H]2[C@H]1C(=O)CN2C(=O)c1ccccc1)c1ccccc1` [Example 333, (3aR,6aS)-N-[(1S)-2-(4-Benzoyl-6-oxo-hexahydro-pyrrolo[3,2-b]pyrrol-1-yl)-1-(4-hydroxy-benzyl)-2-oxo-ethyl]-benzamide], the Ki is less than 5 µM.

On to `CC(C)C[C@H](NC(=O)c1ccc(N(C)C)cc1)C(=O)N1CC[C@@H]2[C@H]1C(=O)CN2C(=O)C1CCNCC1` [Example 242, (3aR,6aS)-4-Dimethylamino-N-{(1S)-3-methyl-1-[6-oxo-4-(piperidine-4-carbonyl)-hexahydro-pyrrolo[3,2-b]pyrrole-1-carbonyl]-butyl}-benzamide], for which the Ki was less than 5 µM.

On to `CC(C)C[C@H](NC(=O)c1ccc(N(C)C)cc1)C(=O)N1CC[C@@H]2[C@H]1C(=O)CN2C(=O)c1ccccn1` [Example 79, (3aR,6aS)-4-Dimethylamino-N-{(1S)-3-methyl-1-[6-oxo-4-(pyridine-2-carbonyl)-hexahydro-pyrrolo[3,2-b]pyrrole-1-carbonyl]-butyl}-benzamide], for which the Ki is less than 5 µM. As for `CC(C)C[C@H](NC(=O)c1ccc(N(C)C)cc1)C(=O)N1CC[C@@H]2[C@H]1C(=O)CN2C(=O)[C@@H](N)CO` [Example 206, (3aR,6aS)-N-{(1S)-1-[((2S)-2-Amino-3-hydroxy-propionyl)-6-oxo-hexahydro-pyrrolo[3,2-b]pyrrole-1-carbonyl]-3-methyl-butyl}-4-dimethylamino-benzamide], the Ki is less than 5 µM. Consider `CC(C)C[C@H](NC(=O)c1ccc(N(C)C)cc1)C(=O)N1CC[C@@H]2[C@H]1C(=O)CN2C(=O)C1CCC1` [Example 133, (3aR,6aS)-N-[(1S)-1-(4-Cyclobutanecarbonyl-6-oxo-hexahydro-pyrrolo[3,2-b]pyrrole-1-carbonyl)-3-methyl-butyl]-4-dimethylamino-benzamide], for which the Ki is less than 5 µM. As for `O=C(N[C@@H](Cc1ccc(O)cc1)C(=O)N1CC[C@@H]2[C@H]1C(=O)CN2C(=O)c1cccs1)c1cccc(Br)c1` [Example 324, (3aR,6aS)-3-Bromo-N-{(1S)-1-(4-hydroxy-benzyl)-2-oxo-2-[6-oxo-4-(thiophene-2-carbonyl)-hexahydro-pyrrolo[3,2-b]pyrrol-1-yl]-ethyl}-benzamide], the Ki is less than 5 µM. For the molecule `CC(C)(C)c1ccc(C(=O)N[C@@H](Cc2cccs2)C(=O)N2CC[C@@H]3[C@H]2C(=O)CN3C(=O)c2ccccc2)cc1` [Example 22, (3aR,6aS)-N-[(1S)-2-(4-Benzoyl-6-oxo-hexahydro-pyrrolo[3,2-b]pyrrol-1-yl)-2-oxo-1-thiophen-2-ylmethyl-ethyl]-4-tert-butyl-benzamide], the Ki was less than 5 µM.

As to `CC(C)C[C@H](NC(=O)c1ccc(N(C)C)cc1)C(=O)N1CC[C@@H]2[C@H]1C(=O)CN2C(=O)c1ccc(N2CCOCC2)nc1` [Example 94, (3aR,6aS)-4-Dimethylamino-N-{(1S)-3-methyl-1-[4-(6-morpholin-4-yl-pyridine-3-carbonyl)-6-oxo-hexahydro-pyrrolo[3,2-b]pyrrole-1-carbonyl]-butyl}-benzamide], the Ki is less than 5 µM.

Take `COC(=O)NCC(=O)N1CC(=O)[C@@H]2[C@H]1CCN2C(=O)[C@H](CC(C)C)NC(=O)c1ccc(N(C)C)cc1` [Example 183, (3aS,6aR)-(2-{4-[(2S)-2-(4-Dimethylamino-benzoylamino)-4-methyl-pentanoyl]-3-oxo-hexahydro-pyrrolo[3,2-b]pyrrole-1-yl}-2-oxo-ethyl)-carbamic acid methyl ester]: the Ki was less than 5 µM. Take `Cc1ccccc1C(=O)N1CC(=O)[C@@H]2[C@H]1CCN2C(=O)[C@H](CC(C)C)NC(=O)c1ccc(N(C)C)cc1` [Example 53, (3aR,6aS)-4-Dimethylamino-N-{(1S)-3-methyl-1-[4-(2-methyl-benzoyl)-6-oxo-hexahydro-pyrrolo[3,2-b]pyrrole-1-carbonyl]-butyl}-benzamide]: the Ki was less than 5 µM.

For `CC(C)C[C@H](NC(=O)c1ccc(N(C)C)cc1)C(=O)N1CC[C@@H]2[C@H]1C(=O)CN2C(=O)c1ccc(O)cc1` [Example 49, (3aR,6aS)-4-Dimethylamino-N-{(1S)-1-[4-(4-hydroxy-benzoyl)-6-oxo-hexahydro-pyrrolo[3,2-b]pyrrole-1-carbonyl]-3-methyl-butyl}-benzamide], the Ki was less than 5 µM. Regarding `Cc1ccc(C(=O)N2CC(=O)[C@@H]3[C@H]2CCN3C(=O)[C@H](Cc2ccc(O)cc2)NC(=O)c2cccc(Br)c2)cc1` [Example 328, (3aR,6aS)-3-Bromo-N-{(1S)-1-(4-hydroxy-benzyl)-2-[4-(4-methyl-benzoyl)-6-oxo-hexahydro-pyrrolo[3,2-b]pyrrole-1-yl]-2-oxo-ethyl}-benzamide], the Ki was less than 5 µM.

For another experiment, the target named is T1, CPB2.8ΔCTE (Leishmania mexicana, UniProt P36400).
T1 construct: Wild-type recombinant CPB without the C-terminal extention (i.e. CPB2.8ΔCTE); Dr. Jeremy Mottram (Wellcome Centre for Molecular Parasitology, University of Glasgow)
T1 sequence (P36400 126-343, stated change not applied): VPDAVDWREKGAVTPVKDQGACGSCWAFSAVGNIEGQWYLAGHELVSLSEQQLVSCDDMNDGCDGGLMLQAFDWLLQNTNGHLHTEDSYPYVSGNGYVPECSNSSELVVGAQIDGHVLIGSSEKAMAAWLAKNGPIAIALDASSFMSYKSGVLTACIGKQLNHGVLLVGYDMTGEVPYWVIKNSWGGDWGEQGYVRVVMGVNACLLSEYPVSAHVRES
Nature of the experiment: Leishmania mexicana cysteine protease B (CPB) peptidase activity assay (Ki). To be noted: Ki, inhibitors of Leismania mexicana CPB protease. It is filed as biochemical. As for the experimental part: Unless otherwise stated, all general chemicals and biochemicals were purchased from either the Sigma Chemical Company, Poole, Dorset, U.K or from Fisher Scientific UK, Loughborough, Leicestershire, U.K. Absorbance assays were carried out in flat-bottomed 96-well plates (Spectra; Greiner Bio-One Ltd., Stonehouse, Gloucestershire, U.K.) using a SpectraMax PLUS384 plate reader (Molecular Devices, Crawley, U.K.). Fluorescence high throughput assays were carried out in either 384-well microtitre plates (Corning Costar 3705 plates, Fisher Scientific) or 96-well ‘U’ bottomed Microfluor W1 microtitre plates (Thermo Labsystems, Ashford, Middlesex, U.K.). Fluorescence assays were monitored using a SpectraMax Gemini fluorescence plate reader (Molecular Devices). For substrates employing either a 7-amino-4-methylcoumarin (AMC) or a 7-amino-4-trifluoromethylcoumarin (AFC) fluorophore, assays were monitored at an excitation wavelength of 365 nm and an emission wavelength of 450 nm and the fluorescence plate reader calibrated with AMC. For substrates employing a 3-amino-benzoyl (Abz) fluorophore, assays were monitored at an excitation wavelength of 310 nm and an emission wavelength of 445 nm; the fluorescence plate reader calibrated with 3-amino-benzamide (Fluka). Unless otherwise indicated, all the peptidase substrates were purchased from Bachem UK, St Helens, Merseyside, UK. Substrates utilizing fluorescence resonance energy transfer methodology (i.e. FRET-based substrates) were synthesized at Incenta Limited using published methods (Atherton & Sheppard, Solid Phase Peptide Synthesis, IRL Press, Oxford, U.K, 1989) and employed Abz (2-aminobenzoyl) as the fluorescence donor and 3-nitro-tyrosine [Tyr(NO2)] as the fluorescence quencher (Meldal, M. and Breddam, K., Anal. Biochem, 195, 141-147, 1991). Hydroxyethylpiperazine ethanesulfonate (HEPES), tris-hydroxylmethyl aminomethane (tris) base, bis-tris-propane and all the biological detergents (e.g. CHAPS, zwittergents, etc.) were purchased from CN Biosciences UK, Beeston, Nottinghamshire, U.K. Glycerol was purchased from Amersham Pharmacia Biotech, Little Chalfont, Buckinghamshire, U.K. Stock solutions of substrate or inhibitor were made up to 10 mM in 100% dimethylsulfoxide (DMSO) (Rathburns, Glasgow, U.K.) and diluted as appropriately required. In all cases the DMSO concentration in the assays was maintained at less than 1% (vol./vol.).
Assay protocols were based on literature precedent (Table 4; Barrett, A. J., Rawlings, N. D. and Woessner, J. F., 1998, Handbook of Proteolytic Enzymes, Academic Press, London and references therein) and modified as required to suit local assay protocols. Enzyme was added as required to initiate the reaction and the activity, as judged by the change in fluorescence upon conversion of substrate to product, was monitored over time. All assays were carried out at 25±1° C.
Wild-type recombinant CPB without the C-terminal extention (i.e. CPB2.8ΔCTE; Sanderson, S. J., et. al., Biochem. J., 347, 383-388, 2000) was obtained from Dr. Jeremy Mottram (Wellcome Centre for Molecular Parasitology, The Anderson College, University of Glasgow, Glasgow, U.K.). Activity assays were carried out in 100 mM sodium acetate; pH 5.5 containing 1 mM EDTA; 200 mM NaCl and 10 mM DTT (Alves, L. C., et. al., Mol. Biochem. Parasitol, 116, 1-9, 2001) using 0.25 nM enzyme. […] The rate of conversion of substrate to product was derived from the slope of the increase in fluorescence monitored continuously over time.
The apparent inhibition constant (Ki) for each compound was determined on the basis that inhibition was reversible and occurred by a pure-competitive mechanism. The Ki values were calculated, from the dependence of enzyme activity as a function of inhibitor concentration, by direct regression analysis (Prism v 3.02) using Equation 2 (Cornish-Bowden, A., 1995.). [formula]
In turn, `COc1cc(OC)cc(C(=O)N2CC(=O)[C@@H]3[C@H]2CCN3C(=O)[C@H](CC(C)C)NC(=O)c2ccc(N(C)C)cc2)c1` [Example 112, (3aR,6aS)-N-{(1S)-1-[4-(3,5-Dimethoxy-benzoyl)-6-oxo-hexahydropyrrolo[3,2-b]pyrrole-1-carbonyl]-3-methyl-butyl}-4-dimethylamino-benzamide] had a Ki of less than 5 µM.

On to `CC(C)C[C@H](NC(=O)c1ccc(N(C)C)cc1)C(=O)N1CC[C@@H]2[C@H]1C(=O)CN2C(=O)c1ccc(C(C)(C)C)cc1` [Example 75, (3aR,6aS)-N-{(1S)-1-[4-(4-tert-Butyl-benzoyl)-6-oxo-hexahydro-pyrrolo[3,2-b]pyrrole-1-carbonyl]-3-methyl-butyl}-4-dimethylamino-benzamide], for which the Ki was less than 5 µM.

`CC(=O)N(C)CC(=O)N1CC(=O)[C@@H]2[C@H]1CCN2C(=O)[C@H](CC(C)C)NC(=O)c1ccc(N(C)C)cc1` [Example 201, (3aR,6aS)-N-((1S)-1-{4-[2-(Acetyl-methyl-amino)-acetyl]-6-oxo-hexahydro-pyrrolo[3,2-b]pyrrole-1-carbonyl}-3-methyl-butyl)-4-dimethylamino-benzamide] yielded a Ki of less than 5 µM. Regarding `CC(C)C[C@H](NC(=O)c1ccc(C(C)(C)C)cc1)C(=O)N1CC[C@@H]2[C@H]1C(=O)CN2S(=O)(=O)c1ccccc1` [Example 119, (3aR,6aS)-N-[(1S)-1-(4-Benzenesulfonyl-6-oxo-hexahydro-pyrrolo[3,2-b]pyrrole-1-carbonyl)-3-methyl-butyl]-4-tert-butyl-benzamide], the Ki was less than 5 µM.

Usually Ki stands for a measure of affinity in units of concentration, obtained from inhibition or displacement.
